Measured values reported in patent US8557800B2, “Sphingosine kinase inhibitors” (Apogee Biotechnology Corporation, priority 2005, dated 2013).

Test system: recombinant human SK
Assay: Inhibition of recombinant human SK, LC/MS/MS assay
Format: biochemical
Details: 6 μg/ml compound
Procedure: SK activity is measured by incubation of the recombinant SK with [^3H]sphingosine and 1 mM ATP under defined conditions, followed by extraction of the assay mixture with chloroform:methanol under basic conditions. […] Radioactivity in aliquots of the aqueous phase is then quantified as a measure of [^3H]S1P formation.
In an alternate assay procedure, the recombinant human SK was incubated with unlabeled sphingosine and ATP as described above. After 30 minutes, the reactions were terminated by the addition of acetonitrile to directly extract the newly synthesized S1P. The amount of S1P in the samples is then quantified as follows. C17 base D-erythro-sphingosine and C17 SIP are used as internal standards for sphingosine and S1P, respectively. […] The lipids are then fractionation by High-Performance Liquid Chromatography using a C8-reverse phase column eluted with 1 mM methanolic ammonium formate/2 mM aqueous ammonium formate. […] Calibration curves are generated by plotting the peak area ratios of the synthetic standards for each sphingolipid, and used to determine the normalized amounts of sphingosine and S1P in the samples.
Each Compound of this invention was tested for its ability to inhibit recombinant SK using the LC/MS/MS assay described above.

| SMILES | Recombinant SK (% inhibition) [%] |
| --- | --- |
| O=C(NCCCc1ccccc1)C12CC3CC(C1)CC(c1ccc(Cl)cc1)(C3)C2 [Compound 48, 3-(4-Chloro-phenyl)-adamantane-1-carboxylic acid (3-phenyl-propyl)-amide] | 36 |
| O=C1CCCN1CCCNC(=O)C12CC3CC(C1)CC(c1ccc(Cl)cc1)(C3)C2 [Compound 55, 3-(4-Chloro-phenyl)-adamantane-1-carboxylic acid [3-(2-oxo-pyrrolidin-1-yl)-propyl]-amide] | 8 |
| O=C(NCCN1CCNCC1)C12CC3CC(C1)CC(c1ccc(Cl)cc1)(C3)C2 [Compound 59, 3-(4-Chloro-phenyl)-adamantane-1-carboxylic acid (2-piperazin-1-yl-ethyl)-amide] | 0 |
| O=C(NCc1ccncc1)C12CC3CC(C1)CC(c1ccc(F)cc1)(C3)C2 [Compound 61, 3-(4-Fluoro-phenyl)-adamantane-1-carboxylic acid (pyridin-4-ylmethyl)-amide] | 58 |
| O=C(NCCCn1ccnc1)C12CC3CC(C1)CC(c1ccc(Cl)cc1)(C3)C2 [Compound 65, 3-(4-Chloro-phenyl)-adamantane-1-carboxylic acid (3-imidazol-1-yl-propyl)-amide] | 3 |
| O=C(Nc1nnn[nH]1)C12CC3CC(C1)CC(c1ccc(Cl)cc1)(C3)C2 [Compound 67, 3-(4-Chloro-phenyl)-adamantane-1-carboxylic acid (1H-tetrazol-5-yl)-amide] | 10 |
| FC(F)(F)c1ccc(CNCC23CC4CC(C2)CC(c2ccc(Cl)cc2)(C4)C3)cc1 [Compound 77, [3-(4-Chloro-phenyl)-adamantan-1-ylmethyl]-(4-trifluoromethyl-benzyl)-amine] | 27 |
| Fc1ccc(CNCC23CC4CC(C2)CC(c2ccc(Cl)cc2)(C4)C3)cc1C(F)(F)F [Compound 79, [3-(4-Chloro-phenyl)-adamantan-1-ylmethyl]-(4-fluoro-3-trifluoromethyl-benzyl)-amine] | 19 |
| FC(F)(F)Oc1ccc(CNCC23CC4CC(C2)CC(c2ccc(Cl)cc2)(C4)C3)cc1 [Compound 80, [3-(4-Chloro-phenyl)-adamantan-1-ylmethyl]-(4-trifluoromethoxy-benzyl)-amine] | 5 |
| Clc1ccc(C23CC4CC(CC(CNCCc5cccc(Oc6ccccc6)c5)(C4)C2)C3)cc1 [Compound 81, [3-(4-Chloro-phenyl)-adamantan-1-ylmethyl]-[2-(3-phenoxy-phenyl)-ethyl]-amine] | 67 |
| CN1CCC(NCC23CC4CC(C2)CC(c2ccc(Cl)cc2)(C4)C3)CC1 [Compound 82, [3-(4-Chloro-phenyl)-adamantan-1-ylmethyl]-(1-methyl-piperidin-4-yl)-amine] | 75 |
| CC(C)(C)NCCCNCC12CC3CC(C1)CC(c1ccc(Cl)cc1)(C3)C2 [Compound 84, N-tert-Butyl-N′-[3-(4-chloro-phenyl)-adamantan-1-ylmethyl]-propane-1,3-diamine] | 84 |
| Clc1ccc(C23CC4CC(CC(CNCCCN5CCCC5)(C4)C2)C3)cc1 [Compound 85, [3-(4-Chloro-phenyl)-adamantan-1-ylmethyl]-(3-pyrrolidin-1-yl-propyl)-amine] | 0 |
| CC(NC(=O)Nc1ccc(Cl)c(C(F)(F)F)c1)C12CC3CC(CC(c4ccc(Cl)cc4)(C3)C1)C2 (stereo not drawn) [Compound 118, 1-{1-[3-(4-Chloro-phenyl)-adamantan-1-yl]-ethyl}-3-(4-chloro-3-trifluoromethyl-phenyl)-urea] | 77 |

Test system: MCF-7 human breast adenocarcinoma cells
Assay: Cytotoxicity, SRB binding assay
Format: cell-based
Details: MCF7, inhibition of cell proliferation, 48 h, read-out: MCF-7 IC50
Procedure: To further assess the biological efficacies of the Compounds in intact cells, each Compound was evaluated for cytotoxicity using human cancer cell lines. These experiments followed methods that have been extensively used. Cell lines tested included MCF-7 human breast adenocarcinoma cells and MCF-10A non-transformed human breast epithelial cells. The indicated cell lines were treated with varying doses of the test Compound for 48 h. Cell survival was then determined using the SRB binding assay (Skehan et al., 1990, J Natl Cancer Inst 82: 1107), and the concentration of compound that inhibited proliferation by 50% (the IC50) was calculated. Values (in μM) represent the mean±sd for replicate trials.

| SMILES | IC50 [µM] |
| --- | --- |
| O=C(NCc1cccc(C(F)(F)F)c1)C12CC3CC(C1)CC(c1ccc(Cl)cc1)(C3)C2 [Compound 15, 3-(4-Chloro-phenyl)-adamantane-1-carboxylic acid 3-trifluoromethyl-benzylamide] | > 112 |
| O=C(NCc1ccc(C(F)(F)F)cc1F)C12CC3CC(C1)CC(c1ccc(Cl)cc1)(C3)C2 [Compound 19, 3-(4-Chloro-phenyl)-adamantane-1-carboxylic acid 2-fluoro-4-trifluoromethyl-benzylamide] | > 108 |
| CC(C)NCC12CC3CC(C1)CC(c1ccc(Cl)cc1)(C3)C2 [Compound 75, [3-(4-Chloro-phenyl)-adamantan-1-ylmethyl]-isopropyl-amine] | 11 |
| CC(Nc1ccccc1)C12CC3CC(CC(c4ccc(F)cc4)(C3)C1)C2 (stereo not drawn) [Compound 94, {1-[3-(4-Fluoro-phenyl)-adamantan-1-yl]-ethyl}-phenyl-amine] | 0.6 |
| CC(NCc1ccccc1)C12CC3CC(CC(c4ccccc4)(C3)C1)C2 (stereo not drawn) [Compound 97, Benzyl-[1-(3-phenyl-adamantan-1-yl)-ethyl]-amine] | 0.5 |
| CC(NCc1ccccc1)C12CC3CC(CC(c4ccc(F)cc4)(C3)C1)C2 (stereo not drawn) [Compound 98, Benzyl-{1-[3-(4-fluoro-phenyl)-adamantan-1-yl]-ethyl}-amine] | 3 |
| CC(NCc1ccccc1)C12CC3CC(CC(c4ccc(Cl)cc4)(C3)C1)C2 (stereo not drawn) [Compound 99, Benzyl-{1-[3-(4-chloro-phenyl)-adamantan-1-yl]-ethyl}-amine] | 0.7 |
| CC(NCc1ccc(C(C)(C)C)cc1)C12CC3CC(CC(c4ccc(Cl)cc4)(C3)C1)C2 (stereo not drawn) [Compound 100, (4-tert-Butyl-benzyl)-{1-[3-(4-chloro-phenyl)-adamantan-1-yl]-ethyl}-amine] | 0.3 |
| CC(NC(C)C12CC3CC(CC(c4ccc(Cl)cc4)(C3)C1)C2)c1ccc(Br)cc1 (stereo not drawn) [Compound 101, [1-(4-Bromo-phenyl)-ethyl]-{1-[3-(4-chloro-phenyl)-adamantan-1-yl]-ethyl}-amine] | 10 |
| CC(NCCc1ccc(Br)cc1)C12CC3CC(CC(C3)C1)C2 (stereo not drawn) [Compound 102, (1-Adamantan-1-yl-ethyl)-[2-(4-bromo-phenyl)-ethyl]-amine] | 2 |
| CC(NN1CCN(C)CC1)C12CC3CC(CC(c4ccc(Cl)cc4)(C3)C1)C2 (stereo not drawn) [Compound 108, {1-[3-(4-Chloro-phenyl)-adamantan-1-yl]-ethyl}-(4-methyl-piperazin-1-yl)-amine] | 5 |
| CC(NCc1ccncc1)C12CC3CC(CC(c4ccccc4)(C3)C1)C2 (stereo not drawn) [Compound 109, [1-(3-Phenyl-adamantan-1-yl)-ethyl]-pyridin-4-ylmethyl-amine] | 26 |
| CC(NCc1ccc(Cl)nc1)C12CC3CC(CC(c4ccc(Cl)cc4)(C3)C1)C2 (stereo not drawn) [Compound 110, {1-[3-(4-Chloro-phenyl)-adamantan-1-yl]-ethyl}-(6-chloro-pyridin-3-ylmethyl)-amine] | 6 |
| CC(NCCc1ccncc1)C12CC3CC(CC(c4ccc(Cl)cc4)(C3)C1)C2 (stereo not drawn) [Compound 111, {1-[3-(4-Chloro-phenyl)-adamantan-1-yl]-ethyl}-(2-pyridin-4-yl-ethyl)-amine] | 13 |
| CC(NCc1cnc[nH]1)C12CC3CC(CC(c4ccc(Cl)cc4)(C3)C1)C2 (stereo not drawn) [Compound 112, {1-[3-(4-Chloro-phenyl)-adamantan-1-yl]-ethyl}-(3H-imidazol-4-ylmethyl)-amine] | 5 |
| Cc1cc2cc(NC(C)C34CC5CC(CC(c6ccc(Cl)cc6)(C5)C3)C4)ccc2[nH]1 (stereo not drawn) [Compound 113, {1-[3-(4-Chloro-phenyl)-adamantan-1-yl]-ethyl}-(2-methyl-1H-indol-5-yl)-amine] | 14 |
| CCn1c2ccccc2c2cc(CNC(C)C34CC5CC(CC(c6ccc(Cl)cc6)(C5)C3)C4)ccc21 (stereo not drawn) [Compound 115, {1-[3-(4-Chloro-phenyl)-adamantan-1-yl]-ethyl}-(9-ethyl-9H-carbazol-3-ylmethyl)-amine] | 1 |
| CCn1c2ccccc2c2cc(C(=O)NC(C)C34CC5CC(CC(c6ccc(Cl)cc6)(C5)C3)C4)ccc21 (stereo not drawn) [Compound 116, 9-Ethyl-9H-carbazole-3-carboxylic acid {1-[3-(4-chloro-phenyl)-adamantan-1-yl]-ethyl}-amide] | 6 |
| CC(NC(=O)Nc1ccc(Cl)c(C(F)(F)F)c1)C12CC3CC(CC(c4ccc(Cl)cc4)(C3)C1)C2 (stereo not drawn) [Compound 117, 1-{1-[3-(4-Chloro-phenyl)-adamantan-1-yl]-ethyl}-3-(4-chloro-3-trifluoromethyl-phenyl)-urea] | 3 |
| CC(NCc1cc(Br)cs1)C12CC3CC(CC(c4ccc(Cl)cc4)(C3)C1)C2 (stereo not drawn) [Compound 119, (4-Bromo-thiophen-2-ylmethyl)-{1-[3-(4-chloro-phenyl)-adamantan-1-yl]-ethyl}-amine] | 11 |
| CC(NCc1cc(-c2ccccc2)cs1)C12CC3CC(CC(c4ccc(Cl)cc4)(C3)C1)C2 (stereo not drawn) [Compound 120, {1-[3-(4-Chloro-phenyl)-adamantan-1-yl]-ethyl}-(4-phenyl-thiophen-2-ylmethyl)-amine] | 108 |
| O=C(/C=C/c1cc(-c2ccccc2)cs1)C12CC3CC(C1)CC(c1ccc(Cl)cc1)(C3)C2 [Compound 137, 1-[3-(4-Chloro-phenyl)-adamantan-1-yl]-3-(4-phenyl-thiophen-2-yl)-propenone] | 9 |
